Measurements reported in ChEMBL document CHEMBL5550115, “Histone deacetylase (HDAC) inhibitor specificity determinants are preserved in a class of dual HDAC/non-covalent proteasome inhibitors” (Bioorg Med Chem, 2024).

What was measured:
20S proteasome = test: Inhibition of human 20S proteasome chymotrypsin-like activity using Suc-LLVY-Glo as a […] substrate measured after 10 mins by luminescence based analysis; type: protein-complex assay
RPMI-8226 = test: Antiproliferative activity against human RPMI-8226 cells assessed as inhibition of cell growth measured after 72 hrs by MTS method; type: functional, cell-based; conditions: RPMI-8226, 72 h
A-375 = test: Antiproliferative activity against human A-375 cells assessed as inhibition of cell growth measured after 48 hrs by cell titer-blue cell viability assay; type: functional, cell-based; conditions: A-375, 48 h
[1] = molecular target: Histone deacetylase 1 (Homo sapiens) (UniProt Q13547); test: Inhibition of HDAC1 (unknown origin) at 1 uM incubated for 1 hr by fluorescence based microplate reader analysis relative to control
[2] = molecular target: T1, Protein deacetylase HDAC6 (Homo sapiens) (UniProt Q9UBN7); test: Inhibition of HDAC6 (unknown origin) at 1 uM incubated for 1 hr by fluorescence based microplate reader analysis relative to control
T1 sequence (whole entry): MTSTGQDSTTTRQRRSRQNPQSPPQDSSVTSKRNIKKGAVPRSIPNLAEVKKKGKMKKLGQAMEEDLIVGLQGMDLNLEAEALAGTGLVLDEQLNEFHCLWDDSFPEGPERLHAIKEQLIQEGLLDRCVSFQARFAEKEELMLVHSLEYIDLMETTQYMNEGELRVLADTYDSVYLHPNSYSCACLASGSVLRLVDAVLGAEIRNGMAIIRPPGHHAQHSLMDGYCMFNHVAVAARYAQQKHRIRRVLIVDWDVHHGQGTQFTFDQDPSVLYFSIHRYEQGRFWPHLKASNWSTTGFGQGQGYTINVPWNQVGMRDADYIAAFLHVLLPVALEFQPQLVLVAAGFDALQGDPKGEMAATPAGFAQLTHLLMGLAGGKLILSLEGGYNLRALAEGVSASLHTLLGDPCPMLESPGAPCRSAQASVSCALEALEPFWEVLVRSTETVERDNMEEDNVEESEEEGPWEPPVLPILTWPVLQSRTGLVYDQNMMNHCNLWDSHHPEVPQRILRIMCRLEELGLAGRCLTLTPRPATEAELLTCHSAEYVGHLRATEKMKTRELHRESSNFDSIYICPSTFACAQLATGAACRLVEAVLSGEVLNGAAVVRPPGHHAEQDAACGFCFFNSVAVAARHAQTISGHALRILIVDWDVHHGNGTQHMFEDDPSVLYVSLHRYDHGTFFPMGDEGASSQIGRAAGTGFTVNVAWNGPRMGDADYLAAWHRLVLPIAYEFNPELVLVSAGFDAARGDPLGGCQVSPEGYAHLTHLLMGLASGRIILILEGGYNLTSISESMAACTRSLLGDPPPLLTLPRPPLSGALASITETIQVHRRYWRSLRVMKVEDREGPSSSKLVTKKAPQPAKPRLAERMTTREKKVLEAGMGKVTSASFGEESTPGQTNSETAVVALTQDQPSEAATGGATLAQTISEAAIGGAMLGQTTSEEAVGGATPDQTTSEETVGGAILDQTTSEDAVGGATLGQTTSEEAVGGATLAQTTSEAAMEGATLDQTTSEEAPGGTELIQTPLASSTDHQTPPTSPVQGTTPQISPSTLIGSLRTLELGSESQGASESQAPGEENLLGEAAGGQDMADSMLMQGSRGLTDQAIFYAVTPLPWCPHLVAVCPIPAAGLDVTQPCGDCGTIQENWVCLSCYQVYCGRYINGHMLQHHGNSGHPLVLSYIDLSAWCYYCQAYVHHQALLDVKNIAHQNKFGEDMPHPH

[3] = molecular target: T2, Proteasome Macropain subunit MB1 (Homo sapiens, UniProt P28074); test: Inhibition of human 20S proteosome beta5c subunit using Ac-WLA-AMC as substrate by microplate reader analysis
T2 sequence (P28074 whole entry): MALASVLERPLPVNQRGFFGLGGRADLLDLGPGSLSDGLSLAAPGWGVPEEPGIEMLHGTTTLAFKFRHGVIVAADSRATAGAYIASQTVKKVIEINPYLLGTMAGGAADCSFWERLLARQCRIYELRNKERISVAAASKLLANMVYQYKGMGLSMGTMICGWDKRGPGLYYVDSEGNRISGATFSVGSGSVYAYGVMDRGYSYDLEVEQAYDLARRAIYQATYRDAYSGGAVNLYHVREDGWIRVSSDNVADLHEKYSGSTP

Sequence of Histone deacetylase 1 (Homo sapiens) (Q13547 whole entry): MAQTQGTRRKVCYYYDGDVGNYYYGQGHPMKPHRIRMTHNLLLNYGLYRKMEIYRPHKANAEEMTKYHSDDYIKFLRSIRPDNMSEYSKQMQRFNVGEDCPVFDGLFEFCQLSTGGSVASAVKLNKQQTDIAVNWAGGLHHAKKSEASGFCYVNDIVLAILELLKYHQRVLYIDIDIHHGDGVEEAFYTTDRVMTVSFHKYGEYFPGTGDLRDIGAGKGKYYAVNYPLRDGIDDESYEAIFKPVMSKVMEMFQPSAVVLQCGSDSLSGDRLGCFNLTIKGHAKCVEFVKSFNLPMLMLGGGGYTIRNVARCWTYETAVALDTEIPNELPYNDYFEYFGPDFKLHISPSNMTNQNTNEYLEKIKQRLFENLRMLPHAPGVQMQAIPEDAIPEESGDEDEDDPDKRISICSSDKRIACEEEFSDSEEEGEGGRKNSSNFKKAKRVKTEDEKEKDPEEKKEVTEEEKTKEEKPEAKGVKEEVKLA

Compound | IC50 (20S proteasome) [µM] | IC50 (RPMI-8226) [µM] | IC50 (A-375) [µM] | inhibition [1] [%] | inhibition [2] [%] | IC50 [3] [µM]
C[C@H](NC(=O)[C@H](CC(=O)NCC(C)(C)C)NC(=O)c1ccc(C(=O)NO)cc1)C(=O)NCc1ccc(F)cc1F | > 30 | > 50 |  |  |  | 
C[C@H](NC(=O)[C@H](CC(=O)NCC(C)(C)C)NC(=O)c1ccc(/C=C/C(=O)NO)cc1)C(=O)NCc1ccc(F)cc1F | 0.199 | 7.03 | 1.83 |  |  | 
C[C@H](NC(=O)[C@H](CC(=O)NCC(C)(C)C)NC(=O)CCCCCCC(=O)NO)C(=O)NCc1ccc(F)cc1F | > 30 | > 50 |  |  |  | 
C[C@H](NC(=O)[C@H](CC(=O)NCC(C)(C)C)NC(=O)c1ccc(C(=O)Nc2ccccc2N)cc1)C(=O)NCc1ccc(F)cc1F |  | > 50 | > 50 | 65 | 13 | 
C[C@H](NC(=O)[C@H](CC(=O)NCC(C)(C)C)NC(=O)CCC(=O)Nc1ccc(C(=O)NO)cc1)C(=O)NCc1ccc(F)cc1F | > 30 | > 50 | > 50 |  |  | 
C[C@H](NC(=O)[C@H](CC(=O)NCC(C)(C)C)NC(=O)c1c[nH]c2ccccc12)C(=O)NCc1ccc(F)cc1F | 0.729 | 11.5 | 8.87 |  |  | 0.0024
